# Test results taken from patent US4032659A (priority 1975, dated 1977).
# “Also recorded” adds a separate entry of the source. Where a name gives a salt, the structure may show the parent alone. Read-outs that look alike come from different tables or passages of the source.
# Legend:
# virus infections = assay: Antiviral screening program, several viruses; details: mouse, in vivo
# [1] = tested on: Influenza B Massachusetts virus; assay: Chemoprophylaxis of Influenza B Massachusetts virus infection in mice; format: in vivo, mouse; details: oral
# Protocol: The activity of four compounds on Influenza B Mass. was tested in mice.
# A portion of a commercially available sample of amantadine was recrystallized from isopropanol. The activity of the material against Influenza B Mass. was tested for the sample as obtained, the recrystallized portion, and the mother liquor obtained from recrystallizing the portion.
# Herpes virus [2] = format: in vivo, mouse; details: oral
# Herpes virus [3] = assay: Herpes virus in eggs (chick embryo survival); format: in vivo, chicken eggs; details: all doses
# [4] = tested on: Influenza Ann Arbor virus; assay: Chemoprophylaxis of Influenza Ann Arbor (A1) virus infection in mice; format: in vivo, mouse; details: oral
compound,measurement,setting,value
N-hydroxyphthalamide,activity (in words),virus infections,active in the practice of this invention
"NC12CC3CC(CC(C3)C1)C2 [Recrystallized amantadine, amantadine, reference compound]",No. animals surviving after 11 days,[1]; total dose 60 ng,4
same,Survivors,[1]; total dose 60 ng,2
same,No. animals surviving after 11 days,[1]; total dose 600 ng,3
same,Survivors,[1]; total dose 600 ng,3
same,No. animals surviving after 11 days,[1]; total dose 6 μg,5
same,Survivors,[1]; total dose 6 μg,5
same,No. animals surviving after 11 days,[1]; total dose 60 μg,5
same,Survivors,[1]; total dose 60 μg,2
same,No. animals surviving after 11 days,[1]; total dose 600 μg,3
same,Survivors,[1]; total dose 600 μg,2
same,No. animals surviving after 11 days,[1]; total dose 6 mg,6
same,Survivors,[1]; total dose 6 mg,4
"NN.O=S(=O)(O)O [Hydrazine Sulfate, hydrazine sulfate]",Survivors,Herpes virus [2]; total dose 5 μg,2
same,Survivors,Herpes virus [2]; total dose .0005 μg,3
same,Survivors,Herpes virus [2]; total dose .005 μg,4
same,Survivors,Herpes virus [2]; total dose .05 μg,0
same,Survivors,Herpes virus [2]; total dose .5 μg,1
NNC(=S)NC12CC3CC(CC(C3)C1)C2,No. animals surviving when 18/20 of controls are dead,Herpes virus [2]; total dose 4pg,1
same,Survivors,Herpes virus [2]; total dose 4pg,1
same,No. animals surviving when 18/20 of controls are dead,Herpes virus [2]; total dose 40pg,1
same,Survivors,Herpes virus [2]; total dose 40pg,1
same,No. animals surviving when 18/20 of controls are dead,Herpes virus [2]; total dose 400pg,3
same,Survivors,Herpes virus [2]; total dose 400pg,3
same,No. animals surviving when 18/20 of controls are dead,Herpes virus [2]; total dose 4ng,2
same,Survivors,Herpes virus [2]; total dose 4ng,2
same,No. animals surviving when 18/20 of controls are dead,Herpes virus [2]; total dose 40ng,2
same,Survivors,Herpes virus [2]; total dose 40ng,2
same,No. animals surviving when 18/20 of controls are dead,Herpes virus [2]; total dose 400ng,3
same,Survivors,Herpes virus [2]; total dose 400ng,3
"NC(=S)NN=C1CCCCC1 [Cyclohexanone, thiosemicarbazone]",No. animals surviving after 11 days,[1]; total dose 5pg,7
same,No. animals surviving when 16/20 of controls are dead,[1]; total dose 5pg,5
same,Survivors,[1]; total dose 5pg,5
same,No. animals surviving after 11 days,[1]; total dose 50pg,4
same,No. animals surviving when 16/20 of controls are dead,[1]; total dose 50pg,3
same,Survivors,[1]; total dose 50pg,2
same,No. animals surviving after 11 days,[1]; total dose 500pg,2
same,No. animals surviving when 16/20 of controls are dead,[1]; total dose 500pg,2
same,Survivors,[1]; total dose 500pg,2
same,No. animals surviving after 11 days,[1]; total dose 5ng,3
same,No. animals surviving when 16/20 of controls are dead,[1]; total dose 5ng,2
same,Survivors,[1]; total dose 5ng,2
same,No. animals surviving after 11 days,[1]; total dose 50ng,7
same,No. animals surviving when 16/20 of controls are dead,[1]; total dose 50ng,7
same,Survivors,[1]; total dose 50ng,5
same,No. animals surviving after 11 days,[1]; total dose 500ng,2
same,No. animals surviving when 16/20 of controls are dead,[1]; total dose 500ng,1
same,Survivors,[1]; total dose 500ng,1
NN [hydrazine],"No. Living Longer Than Controls, total",Herpes virus [3],3
same,No. animals surviving after 7 days,Herpes virus [2]; total dose 5 μg,7
same,No. animals surviving after 7 days,Herpes virus [2]; total dose .0005 μg,5
same,No. animals surviving when 19/20 controls are dead,Herpes virus [2]; total dose .0005 μg,5
same,No. animals surviving after 7 days,Herpes virus [2]; total dose .005 μg,6
same,No. animals surviving when 19/20 controls are dead,Herpes virus [2]; total dose .005 μg,3
same,No. animals surviving after 7 days,Herpes virus [2]; total dose .05 μg,5
same,No. animals surviving after 7 days,Herpes virus [2]; total dose .5 μg,6
same,No. animals surviving when 19/20 controls are dead,Herpes virus [2]; total dose .5 μg,1
"NC12CC3CC(CC(C3)C1)C2 [Commercial amantadine, amantadine, reference compound]",No. animals surviving after 11 days,[1]; total dose 60 ng,3
same,Survivors,[1]; total dose 60 ng,0
same,No. animals surviving after 11 days,[1]; total dose 600 ng,3
same,Survivors,[1]; total dose 600 ng,3
same,No. animals surviving after 11 days,[1]; total dose 6 μg,7
same,Survivors,[1]; total dose 6 μg,5
same,No. animals surviving after 11 days,[1]; total dose 60 μg,3
same,Survivors,[1]; total dose 60 μg,2
same,No. animals surviving after 11 days,[1]; total dose 600 μg,5
same,Survivors,[1]; total dose 600 μg,5
same,No. animals surviving after 11 days,[1]; total dose 6 mg,4
same,Survivors,[1]; total dose 6 mg,2
"CCCC(C)=NNC(N)=S [2-pentanone, thiosemicarbazone]",No. animals surviving after 6 days,[4]; total dose 30 pg,2
same,Survivors,[4]; total dose 30 pg,0
same,No. animals surviving after 6 days,[4]; total dose 300 pg,2
same,Survivors,[4]; total dose 300 pg,0
same,No. animals surviving after 6 days,[4]; total dose 3 ng,2
same,Survivors,[4]; total dose 3 ng,0
same,No. animals surviving after 7 days,[4]; total dose 15 ng,3
same,Survivors,[4]; total dose 15 ng,0
same,No. animals surviving after 7 days,[4]; total dose 22.5 ng,0
same,Survivors,[4]; total dose 22.5 ng,0
same,No. animals surviving after 6 days,[4]; total dose 30 ng,2
same,Survivors,[4]; total dose 30 ng,0
same,No. animals surviving after 7 days,[4]; total dose 75 ng,1
same,Survivors,[4]; total dose 75 ng,0
same,No. animals surviving after 7 days,[4]; total dose 150 ng,0
same,Survivors,[4]; total dose 150 ng,0
same,No. animals surviving after 7 days,[4]; total dose 225 ng,3
same,Survivors,[4]; total dose 225 ng,0
same,No. animals surviving after 6 days,[4]; total dose 300 ng,1
same,Survivors,[4]; total dose 300 ng,0
same,No. animals surviving after 7 days,[4]; total dose 750 ng,2
same,Survivors,[4]; total dose 750 ng,0
same,No. animals surviving after 7 days,[4]; total dose 1.5 μg,2
same,Survivors,[4]; total dose 1.5 μg,0
same,No. animals surviving after 7 days,[4]; total dose 2.25 μg,1
same,Survivors,[4]; total dose 2.25 μg,1
same,No. animals surviving after 6 days,[4]; total dose 3 μg,1
same,Survivors,[4]; total dose 3 μg,0
same,No. animals surviving after 6 days,[4]; total dose 30 μg,1
same,Survivors,[4]; total dose 30 μg,1
same,No. animals surviving after 6 days,[4]; total dose 300 μg,0
same,Survivors,[4]; total dose 300 μg,0
"Cc1ccccc1NC(=S)NN=C1CCCC1 [cyclopentanone, 3-thio-4-o-tolylsemicarbazone]",No. animals surviving after 5 days,[4]; total dose 30 pg,6
same,Survivors,[4]; total dose 30 pg,0
same,No. animals surviving after 5 days,[4]; total dose 300 pg,9
same,Survivors,[4]; total dose 300 pg,0
same,No. animals surviving after 5 days,[4]; total dose 3 ng,9
same,Survivors,[4]; total dose 3 ng,0
same,No. animals surviving after 5 days,[4]; total dose 30 ng,9
same,No. animals surviving after 5 days,[4]; total dose 300 ng,6
same,Survivors,[4]; total dose 300 ng,0
same,No. animals surviving after 5 days,[4]; total dose 3 μg,6
same,Survivors,[4]; total dose 3 μg,0
same,Survivors,[4]; total dose 30 μg,0
same,No. animals surviving after 5 days,[4]; total dose 300 μg,9
same,Survivors,[4]; total dose 300 μg,0
same,No. animals surviving after 5 days,[4]; total dose 3 mg,8
same,Survivors,[4]; total dose 3 mg,0
"CNNC [1,2-dimethylhydrazine, dihydrochloride]",No. animals surviving after 6 days,[4]; total dose 30 pg,6
same,Survivors,[4]; total dose 30 pg,1
same,No. animals surviving after 6 days,[4]; total dose 300 pg,2
same,Survivors,[4]; total dose 300 pg,0
same,No. animals surviving after 6 days,[4]; total dose 3 ng,3
same,Survivors,[4]; total dose 3 ng,0
same,No. animals surviving after 6 days,[4]; total dose 30 ng,3
same,Survivors,[4]; total dose 30 ng,1
same,No. animals surviving after 6 days,[4]; total dose 300 ng,5
same,Survivors,[4]; total dose 300 ng,0
same,No. animals surviving after 6 days,[4]; total dose 3 μg,3
same,Survivors,[4]; total dose 3 μg,0
same,No. animals surviving after 6 days,[4]; total dose 30 μg,4
same,Survivors,[4]; total dose 30 μg,0
same,No. animals surviving after 6 days,[4]; total dose 300 μg,6
same,Survivors,[4]; total dose 300 μg,0
same,No. animals surviving after 6 days,[4]; total dose 3 mg,3
same,Survivors,[4]; total dose 3 mg,0
"N=C(N)NN [aminoguanidine, bicarbonate]",Survivors,[1]; total dose 40pg,0
same,Survivors,[1]; total dose 4ng,0
same,Survivors,[1]; total dose 40ng,1
same,Survivors,[1]; total dose 400ng,1
same,Survivors,[1]; total dose 4μg,1
"NNc1nncc2ccccc12 [Hydralazine, hydralazine, reference compound]",activity (in words),virus infections,effective against Herpes virus
"CNN [Methylhydrazine, methylhydrazine]",No. animals surviving after 6 days,[4]; total dose 30 pg,2
same,Survivors,[4]; total dose 30 pg,1
same,No. animals surviving after 6 days,[4]; total dose 300 pg,3
same,Survivors,[4]; total dose 300 pg,0
same,No. animals surviving after 6 days,[4]; total dose 3 ng,3
same,Survivors,[4]; total dose 3 ng,1
same,No. animals surviving after 6 days,[4]; total dose 30 ng,4
same,Survivors,[4]; total dose 30 ng,1
same,No. animals surviving after 6 days,[4]; total dose 300 ng,1
same,Survivors,[4]; total dose 300 ng,0
same,No. animals surviving after 6 days,[4]; total dose 3 μg,3
same,Survivors,[4]; total dose 3 μg,0
same,No. animals surviving after 6 days,[4]; total dose 30 μg,3
same,Survivors,[4]; total dose 30 μg,1
same,No. animals surviving after 6 days,[4]; total dose 300 μg,1
same,Survivors,[4]; total dose 300 μg,0
same,Toxicity,[4]; total dose 3 mg,Toxic; also recorded: Toxic?
"CCOC(=O)CC(C)=NNC(N)=S [acetoacetic acid, ethyl ester, thiosemicarbazone]",No. animals surviving after 5 days,[4]; total dose 30 pg,8
same,Survivors,[4]; total dose 30 pg,0
same,No. animals surviving after 5 days,[4]; total dose 300 pg,4
same,Survivors,[4]; total dose 300 pg,0
same,No. animals surviving after 5 days,[4]; total dose 3 ng,5
same,Survivors,[4]; total dose 3 ng,0
same,No. animals surviving after 5 days,[4]; total dose 30 ng,5
same,Survivors,[4]; total dose 30 ng,0
same,No. animals surviving after 5 days,[4]; total dose 300 ng,4
same,Survivors,[4]; total dose 300 ng,0
same,No. animals surviving after 5 days,[4]; total dose 3 μg,6
same,Survivors,[4]; total dose 3 μg,0
same,No. animals surviving after 5 days,[4]; total dose 30 μg,8
same,Survivors,[4]; total dose 30 μg,0
same,No. animals surviving after 5 days,[4]; total dose 300 μg,7
same,Survivors,[4]; total dose 300 μg,0
same,No. animals surviving after 5 days,[4]; total dose 3 mg,5
same,Survivors,[4]; total dose 3 mg,0
